Results reported in PMC8516514 (Clinical Infectious Diseases: An Official Publication of …, 2020).
Several values for one entry are separate records, joined by “and”; a condition that tells them apart may be missing. Equal values may be shown once.

How the values were obtained:
HBV [1] = settings: after NVR 3–778 treatment; cited from earlier work
HBV [2] = settings: cited from earlier work
[3] = Safety and tolerability in patients with chronic HBV infection; assay type: in vivo, human; settings: for effect of silibinin and glutathione treatment on ALT flares: subjects with ALT flares, decline in ALT level
HBV [4] = test: Change in serum HBV pgRNA, phase 1b study in patients with chronic HBV infection; assay type: in vivo, human
HBV [5] = test: Change in serum HBsAg, phase 1b study in patients with chronic HBV infection; assay type: in vivo, human
HBV [6] = test: Change in serum HBV DNA, phase 1b study in patients with chronic HBV infection; assay type: in vivo, human
HBV [7] = test: Change in serum HBcrAg, phase 1b study in patients with chronic HBV infection; assay type: in vivo, human
[8] = baseline ALT 27–45 IU/mL; cited from earlier work
[9] = Phase Ia tolerability in healthy subjects; assay type: in vivo, human; settings: 9 days, unpublished observations
[10] = preclinical study in dogs; cited from earlier work
HBV [11] = test: Change in serum HBeAg, phase 1b study in patients with chronic HBV infection; assay type: in vivo, human
HBV [12] = system: HBV
[13] = Phase Ia pharmacokinetics of GLS4 in healthy subjects; assay type: in vivo, human; settings: for mean steady-state Cmin: unpublished observations
HBV in HepG2.2.15 cell = settings: cited from earlier work
[14] = Plasma pharmacokinetics of GLS4 in patients with chronic HBV infection; assay type: in vivo, human; settings: for AUC0–24 / AUC0–t / Cmax / Ctrough / t1/2 / Df (degree of fluctuation): mean (CV)
[15] = cohort C: entecavir 0.5 mg/day, n=8
[16] = cohort A: GLS4 120 mg/day + ritonavir 100 mg/day
[17] = cohort B: GLS4 240 mg/day + ritonavir 100 mg/day
[18] = cohort A: GLS4 120 mg/day + ritonavir 100 mg/day, n=8
[19] = cohort B: GLS4 240 mg/day + ritonavir 100 mg/day, n=8
[20] = cohort A (GLS4 120 mg/day + ritonavir 100 mg/day), Day 1 (24 Hours)
[21] = cohort A (GLS4 120 mg/day + ritonavir 100 mg/day), Day 28 (24 Hours)
[22] = cohort A (GLS4 120 mg/day + ritonavir 100 mg/day), Day 28 (120 Hours)
[23] = cohort B (GLS4 240 mg/day + ritonavir 100 mg/day), Day 1 (24 Hours)
[24] = cohort B (GLS4 240 mg/day + ritonavir 100 mg/day), Day 28 (24 Hours)
[25] = cohort B (GLS4 240 mg/day + ritonavir 100 mg/day), Day 28 (120 Hours)

In the case of O=C(Nc1cc(F)c(F)c(F)c1)c1ccc(F)c(S(=O)(=O)N2CCC(O)CC2)c1 [NVR 3–778], the “mean change in HBV DNA” value (HBV [1]) is given as −1.43 log10 IU/mL, the “mean decline in HBeAg” value (HBV [1]) is given as −0.09 log10 IU/mL and the “mean decline in HBsAg” value (HBV [1]) is given as −0.02 log10 IU/mL.

For COc1cc(C2Oc3cc([C@H]4Oc5cc(O)cc(O)c5C(=O)[C@@H]4O)ccc3OC2CO)ccc1O (some centres unmarked) [silibinin, reference compound], the antiviral effects (HBV [2]) is given as “no antiviral effects” and the “effect of silibinin and glutathione treatment on ALT flares” value [3] is given as “effective in reducing ALT flares”.

In the case of N[C@@H](CCC(=O)N[C@@H](CS)C(=O)NCC(=O)O)C(=O)O [glutathione, reference compound], the antiviral effects (HBV [2]) is listed as “no antiviral effects” and the “effect of silibinin and glutathione treatment on ALT flares” value [3] is listed as “effective in reducing ALT flares”.

With C=C1[C@H](CO)[C@@H](O)C[C@@H]1n1cnc2c(=O)[nH]c(N)nc21 [entecavir, reference compound] the “mean decline in pgRNA after 28 days of treatment” value (“mean decline in pgRNA” below) (HBV [4]; cohort C: entecavir 0.5 mg/day) was −0.96 log10 copies/mL, the “mean decline in HBsAg after 28 days of treatment” value (HBV [5]; cohort C: entecavir 0.5 mg/day) was −0.33 log10 IU/mL and the “mean decline in HBV DNA after 28 days of treatment” value (shortened to “mean decline in HBV DNA”) (HBV [6]; cohort C: entecavir 0.5 mg/day) was −3.5 log10 IU/mL. The “mean decline in HBcrAg after 28 days of treatment” value (shortened to “mean decline in HBcrAg”) (HBV [7]; cohort C: entecavir 0.5 mg/day) was −0.44 log10 U/mL, the “patients who experienced an adverse reaction” value [3, 15] was 7 and the “patients withdrawn due to ALT flare” value [3, 15] was 1. The “subjects with alanine aminotransferase flare” value (from here on “subjects”) [3, 15] was 3.

For O=C(NCc1cnc(C(F)(F)F)s1)c1ccc2c(c1)NC(=O)c1ccccc1S2(=O)=O [ABI-H0731], the “ALT flare in phase I clinical study” value [8] is given as “without ALT flare”.

With CCOC(=O)C1=C(CN2CCOCC2)NC(c2nccs2)=NC1c1ccc(F)cc1Br (centres unmarked) [GLS4] the “mean decline in pgRNA” value (HBV [4]; [16]) was −0.75 log10 copies/mL, the “mean decline in pgRNA” value (HBV [4]; [17]) was −1.78 log10 copies/mL and the “tolerability of GLS4 (120 or 240 mg) in combination with 100 mg ritonavir” value [9] was “tolerated”. For the same molecule, the tolerability [10] was “well tolerated”, the “mean decline in HBsAg after 28 days of treatment” value (HBV [5]; [16]) was −0.06 log10 IU/mL and the “mean decline in HBsAg after 28 days of treatment” value (HBV [5]; [17]) was −0.14 log10 IU/mL. For the same molecule, the “mean decline in HBeAg after 28 days of treatment” value (HBV [11]; [16]) was −0.25 log10 IU/mL, the “mean decline in HBeAg after 28 days of treatment” value (HBV [11]; [17]) was −0.30 log10 IU/mL and the “efficacy in patients resistant to lamivudine or adefovir dipivoxil treatment” value (HBV [12]; cohort A: patient 013, cohort B: patient 020) was “effective”. For the same molecule, the “GLS4 resistance among patients” value (HBV [12]; cohorts A and B, 28 days of treatment) was “not observed”, the “decline in HBV DNA levels in patients with poor response” value (HBV [6]; cohort A (GLS4 120 mg/day + ritonavir 100 mg/day), patients 003, 005 and 022) was less than 0.5 log10 IU/mL and the “mean decline in HBV DNA” value (HBV [6]; [16]) was −1.42 log10 IU/mL. The “mean decline in HBV DNA” value (HBV [6]; [17]) was −2.13 log10 IU/mL, the “mean change in HBV DNA following GLS4 treatment” value (HBV [6]; cohorts A and B (GLS4 120 or 240 mg/day + ritonavir 100 mg/day, 28 days)) was −1.42 to −2.13 log10 IU/mL and the “mean steady-state Cmin” value ([13]; GLS4 120 mg/day + ritonavir 100 mg/day for 9 days) was 187.9 ng/mL. The “mean steady-state Cmin” value ([13]; GLS4 240 mg/day + ritonavir 100 mg/day for 9 days) was 300.7 ng/mL, the “t1/2 of GLS4 monotherapy” value ([13]; without ritonavir, data not shown) was 1.09 to 15.8 h and the “90% effective concentration (EC90)” value (HBV in HepG2.2.15 cell; HepG2.2.15 cell, after correction with Human plasma protein binding) was 55.8 ng/mL. For the same molecule, the “anti-HBV activity in vitro compared with Bay 41–4109” value (HBV in HepG2.2.15 cell; in vitro) was “better anti-HBV activity in vitro than Bay 41–4109”, the “mean decline in HBcrAg” value (HBV [7]; [16]) was −0.23 log10 U/mL and the “mean decline in HBcrAg” value (HBV [7]; [17]) was −0.5 log10 U/mL and −0.50 log10 U/mL. For the same molecule, the “tolerability in patients with chronic HBV infection” value ([3]; 120 mg GLS4 (+ ritonavir 100 mg), 28 days) was “tolerated”, the “frequency of grade 3–4 adverse reactions” value [3, 18] was 2 and the “patients who experienced an adverse reaction” value [3, 18] was 5. The “patients withdrawn due to ALT flare” value [3, 18] was 1 and 1/8, the “subjects” value [3, 18] was 2 and 2/8 and the “frequency of grade 3–4 adverse reactions” value [3, 19] was 7. For the same molecule, the “patients who experienced an adverse reaction” value [3, 19] was 6, the “patients withdrawn due to ALT flare” value [3, 19] was 2 and 2/8 and the “presence of SAEs” value [3, 19] was 1. The “subjects” value [3, 19] was 3 and 3/8, the “Median Tmax (minimum–maximum)” value [14, 20] was 3 (1.5,4) hours and the “AUC0–24” value [14, 20] was 4268 (27) ng × hours/mL. The “AUC0–t” value [14, 20] was 4268 (27) ng × hours/mL, the Cmax [14, 20] was 885 (27) ng/mL and the “Median Tmax (minimum–maximum)” value [14, 21] was 3 (0.5, 4) hours. The “AUC0–24” value [14, 21] was 7871 (56) ng × hours/mL, the “AUC0–t” value [14, 21] was 7871(56) ng × hours/mL and the Cmax [14, 21] was 865 (66) ng/mL. For the same molecule, the Ctrough [14, 21] was 218(59) ng/mL, the t1/2 [14, 21] was 32.1(11.7) hours and the “Median Tmax (minimum–maximum)” value [14, 22] was 3 (0.5, 4) hours. For the same molecule, the “AUC0–24” value [14, 22] was 7871 (56) ng × hours/mL, the Cmax [14, 22] was 865 (66) ng/mL and the “Df (degree of fluctuation)” value [14, 22] was 204 (36) %. For the same molecule, the t1/2 [14, 22] was 64.2 (14.8) hours, the “Median Tmax (minimum–maximum)” value [14, 23] was 3.5 (2, 4) hours and the “AUC0–24” value [14, 23] was 8055 (34) ng × hours/mL. For the same molecule, the “AUC0–t” value [14, 23] was 8055 (34) ng × hours/mL, the Cmax [14, 23] was 1447 (39) ng/mL and the t1/2 [14, 23] was 10.6 (3.3) hours. For the same molecule, the “Median Tmax (minimum–maximum)” value [14, 24] was 3 (2, 4) hours, the Cmax [14, 24] was 1461 (24) ng/mL and the Ctrough [14, 24] was 205(63) ng/mL. The t1/2 [14, 24] was 16.3(7.6) hours, the “Median Tmax (minimum–maximum)” value [14, 25] was 3 (2, 4) hours and the Cmax [14, 25] was 1461 (24) ng/mL. The “Df (degree of fluctuation)” value [14, 25] was 265 (33) %, the t1/2 [14, 25] was 67.3 (24.2) hours and the “accumulation rate with AUC0–24 (day 28 vs day 1)” value ([14]; cohorts A and B) was 1.6–2.0. The “accumulation rate with Cmax (day 28 vs day 1)” value ([14]; cohorts A and B) was 1.1–1.2, the accumulation rate ([14]; cohorts A and B, day 28 vs day 1, AUC0–24 or Cmax) was 1.1–2.0 and the “time to maximum GLS4 concentration (Tmax)” value ([14]; cohorts A and B, first and last dose (days 1 and 28), with ritonavir) was 3–3.5 hours and ~ 3 hours. For the same molecule, the “mean trough concentration (Ctrough) of GLS4” value ([14]; cohorts A and B, steady state, with ritonavir 100 mg/day) was 205 to 218 ng/mL and the “t1/2 of GLS4 when combined with ritonavir” value ([14]; patients, cohorts A and B) was 64.2 to 67.3 h.
